{
  "source": "paper PMC7616177",
  "about": "“From structure to clinic: Design of a muscarinic M1 receptor agonist with the potential to treat Alzheimer’s disease” (Cell, 2021)",
  "key": {"human M5-receptor": {"biological_target": "T1, human M5-receptor (Homo sapiens, UniProt P08912)", "T1 construct": "expressed in transfected cells; host or cells: not described", "assay": "M5-receptor functional agonist assay", "assay_type": "cell-based"}, "[1]": {"biological_target": "T2, M1-receptor (Gq/11 protein-coupling) in cortical membranes (Mus musculus, UniProt P12657)", "T2 construct": "Wild-type or M1-KO mice ([Bradley et al., 2017]) (8-12 weeks) were humanely killed and cortical tissue was dissected on ice; from tissue; host or cells: mouse cortex membranes", "T2 sequence (P12657 1-460)": "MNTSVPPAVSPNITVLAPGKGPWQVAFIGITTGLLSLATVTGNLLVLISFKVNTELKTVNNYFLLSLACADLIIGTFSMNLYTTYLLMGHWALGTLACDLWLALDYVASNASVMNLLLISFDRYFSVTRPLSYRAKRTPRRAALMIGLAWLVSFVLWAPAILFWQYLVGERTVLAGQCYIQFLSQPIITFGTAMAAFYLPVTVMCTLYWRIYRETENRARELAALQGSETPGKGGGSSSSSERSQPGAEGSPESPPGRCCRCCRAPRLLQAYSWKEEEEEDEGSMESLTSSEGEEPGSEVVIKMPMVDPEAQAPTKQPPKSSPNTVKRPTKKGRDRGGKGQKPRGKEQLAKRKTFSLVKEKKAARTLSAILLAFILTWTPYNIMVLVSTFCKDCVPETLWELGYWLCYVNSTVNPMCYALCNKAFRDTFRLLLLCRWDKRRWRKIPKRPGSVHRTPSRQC", "assay": "[35S]-GTPγS binding / Gq/11 protein-coupling in mouse cortical membranes", "assay_type": "biochemical", "protocol": "Wild-type or M1-KO mice ([Bradley et al., 2017]) (8-12 weeks) were humanely killed and cortical tissue was dissected on ice. Tissue was suspended in ice-cold buffer A (containing 0.9% (w/v) NaCl, 10 mM HEPES, 0.2% (w/v) EDTA, pH 7.4) and homogenized (4 ×5s bursts) using a Polytron homogenizer. The suspension was centrifuged at 200 xg for 5 min at 4°C using an Eppendorf 5810R bench-top centrifuge. Supernatants were collected and re-homogenized as above. The suspension was subsequently centrifuged for 20 min at 40,000 xg at 4°C using a Beckman Coulter Avanti JXN-26 centrifuge with a JA-25.25 rotor. Supernatant was discarded, and the pellet was re-suspended in 10 mL ice-cold buffer B (10 mM HEPES, 10 mM EDTA, pH 7.4). The pellet was homogenized, GTP (1 mM final) was added and the suspension was incubated at 37° C for 15 min. The suspension was subsequently centrifuged for 20 min at 40,000 xg at 4°C and the pellet was re-suspended in 15 mL ice-cold buffer C (10 mM HEPES, 0.1 mM EDTA, pH 7.4) and re-homogenized as before. Suspension was centrifuged again for 20 min at 40,000 xg at 4°C. The final pellet was re-suspended in buffer C and protein concentration was estimated using a Bradford assay and this resuspended homogenate further diluted in buffer C to produce a concentration of 2 mg/mL. This preparation is the membrane preparation used in the [^35S]-GTPγS binding assay described below.\n[^35S]-GTPγS binding and immunoprecipitation of Gα subunits was performed as previously described ([Bradley et al., 2017]). Specifically, wild-type or M1-KO membranes were diluted in assay buffer (in mM: HEPES, 10; NaCI, 100; MgCl2, 10; pH 7.4) containing a final concentration of 1 μM GDP. Membranes (75 μg in a total assay volume of […]) were added to [^35S]-GTPγS (1 μM final concentration) and agonists (CCh or CNO) and incubated at 30°C for 5 min. Reactions were terminated by the addition of 1 mL ice-cold assay buffer and immediate transfer to an ice bath. […] Recovered beads were then mixed with 1 mL FloScint-IV scintillation cocktail and counted by liquid scintillation spectrometry."}, "locomotor activity": {"system": "locomotor activity", "assay": "Locomotor activity alone or with amphetamine", "assay_type": "in vivo", "settings": "doses up to 100 mg/kg"}, "human M1 receptor [2]": {"biological_target": "T3, human M1 receptor (Homo sapiens, UniProt P11229)", "T3 construct": "expressed in transfected cells", "T3 sequence (P11229 1-460)": "T2 sequence (P12657 1-460) with V5A, S254T, K320R, G337A, V413I", "assay": "Interaction with ACh in IP1 assay after phenoxybenzamine receptor depletion (Schild)", "assay_type": "cell-based"}, "human M1 receptor [3]": {"biological_target": "T3, human M1 receptor", "assay": "[3H]-NMS equilibrium radioligand binding, M1", "protocol": "Non-specific binding (NSB) was determined in the presence of 1 μM atropine). Reactions were terminated by rapid filtration onto GF/B filter paper (Whatman, Maidstone, UK) and three washes with 3 mL ice-cold 0.9% NaCl using a Brandel harvester (M-24TI; Brandel, Fort Lauderdale, FL). Membrane bound radioactivity was determined by liquid scintillation (Ultima Gold; PerkinElmer) counting.\nData was analyzed using PRISM (GraphPad). For saturation binding, non-specific and total binding data were analyzed to a one site binding model. DPM was converted to fmol/mg to compare across constructs. […] […] The Cheng Prusoff equation was used to estimate pKi ([Cheng and Prusoff, 1973])."}},
  "note": "Positions count from the first letter of the chain named.",
  "data": [
    {"molecule": "CCOC(=O)N1CCC[C@H](N2CCC(C(=O)NC3(C)CCC3)CC2)CC1", "note": "[HTL9936, ethyl (S)-4-(4-((1-methylcyclobutyl)carbamoyl)piperidin-1-yl)azepane-1-carboxylate]", "values": [
      {"measurement": "M5-receptor agonism", "setting": "human M5-receptor", "result": "no detectable agonism"},
      {"measurement": "EC50", "setting": "[1]", "result": 2500, "unit": "nM"},
      {"measurement": "Gq/11 protein-coupling Emax", "setting": "[1]; cortical membranes, wild-type mice, n = 3", "result": "76 % of the oxotremorine-M response"},
      {"measurement": "Gq/11 protein-coupling in M1-receptor KO membranes", "setting": "[1]; membranes from M1-receptor KO animals", "result": "absent"},
      {"measurement": "Adverse responses and locomotor activity", "setting": "locomotor activity", "result": "no adverse responses nor had any effect on locomotor activity"},
      {"measurement": "Kb", "setting": "human M1 receptor [2]", "result": 6.31, "unit": "µM"},
      {"measurement": "Ki", "setting": "human M1 receptor [3]", "result": 20, "unit": "µM"}
    ]}
  ]
}
